What is called EC50 is the concentration giving half of the maximal effect.

Consider 25 compounds from patent publication US20240018133A1, “MODULATORS OF THE INTEGRATED STRESS PATHWAY” (Calico Life Sciences LLC, priority 2019, published 2024).

This assay concerns ATF4 luciferase reporter (human full-length ATF4 5'-UTR fused to firefly luciferase) in HEK293T cells. The assay is described as follows: ATF4-Luc assay (in vitro model of VWMD): HEK293T cells carrying ATF4 luciferase reporter, tunicamycin-treated. In kind it is cell-based. Conditions: Homo sapiens, HEK-293T, 1 μg/mL tunicamycin, 7 hours, One Glo luminescence. As for the experimental part:
In order to test exemplary compounds of the invention in a cellular context, a stable VWMD cell line was first constructed. The ATF4 reporter was prepared by fusing the human full-length ATF4 5′-UTR (NCBI Accession No. BC022088.2) in front of the firefly luciferase (FLuc) coding sequence lacking the initiator methionine as described in Sidrauski et al (eLife 2013). The construct was used to produce recombinant retroviruses using standard methods and the resulting viral supernatant was used to transduce HEK293T cells, which were then subsequently selected with puromycin to generate a stable cell line.
HEK293T cells carrying the ATF4 luciferase reporter were plated on polylysine coated 384-well plates (Greiner Bio-one) at 30,000 cells per well. Cells were treated the next day with 1 μg/mL tunicamycin and 200 nM of a compound of Formula (I) for 7 hours. Luminescence was measured using One Glo (Promega) as specified by the manufacturer. Cells were maintained in DMEM with L-glutamine supplemented with 10% heat-inactivated FBS (Gibco) and Antibiotic-Antimycotic solution (Gibco).
Table 2 below summarizes the EC50 data obtained using the ATF4-Luc assay for exemplary compounds of the invention.
Regarding `COC(=O)CN1C[C@@H](C(=O)NC23CC(NC(=O)COc4ccc(Cl)c(F)c4)(C2)C3)Oc2ccc(Cl)cc21` [Compound 211, methyl [(2S)-6-chloro-2-({3-[2-(4-chloro-3-fluorophenoxy)acetamido]bicyclo[1.1.1]pentan-1-yl}carbamoyl)-2,3-dihydro-4H-1,4-benzoxazin-4-yl]acetate], the concentration giving a half-maximal response (EC50) is 10 to 50 nM. Under `O=C(NC12CC(NC(=O)C3CC(O)c4cc(Cl)ccc4O3)(C1)C2)c1cnc(C(F)F)cn1` (stereo not shown) [Compound 213, N-{3-[(6-chloro-4-hydroxy-3,4-dihydro-2H-1-benzopyran-2-carbonyl)amino]bicyclo[1.1.1]pentan-1-yl}-5-(difluoromethyl)pyrazine-2-carboxamide] stands 10 to 50 nM; under `O=C(NC12CCC(NC(=O)C3CC(=O)c4cc(Cl)ccc4O3)(CC1)[C@@H](O)C2)c1cc(C(F)F)no1` (stereo partly drawn) [Compound 214, N-{(3S)-4-[(6-chloro-4-oxo-3,4-dihydro-2H-1-benzopyran-2-carbonyl)amino]-3-hydroxybicyclo[2.2.2]octan-1-yl}-3-(difluoromethyl)-1,2-oxazole-5-carboxamide], 250 to 500 nM. Next, `O=C(NC12CC(NC(=O)C3CC(=O)c4cc(Cl)ccc4O3)(C1)C2)c1cnc(C(F)F)cn1` (stereo not shown) [Compound 217, N-{3-[(6-chloro-4-oxo-3,4-dihydro-2H-1-benzopyran-2-carbonyl)amino]bicyclo[1.1.1]pentan-1-yl}-5-(difluoromethyl)pyrazine-2-carboxamide]: 50 to 250 nM; `CS(=O)(=O)NC1CC(C(=O)NC23CC(NC(=O)COc4ccc(Cl)c(F)c4)(C2)C3)Oc2ccc(Cl)cc21` (stereo not shown) [Compound 219, 6-chloro-N-{3-[2-(4-chloro-3-fluorophenoxy)acetamido]bicyclo[1.1.1]pentan-1-yl}-4-[(methanesulfonyl)amino]-3,4-dihydro-2H-1-benzopyran-2-carboxamide]: below 10 nM. `CC(=O)NC1CC(C(=O)NC23CC(NC(=O)COc4ccc(Cl)c(F)c4)(C2)C3)Oc2ccc(Cl)cc21` (stereo not shown) [Compound 220, 4-acetamido-6-chloro-N-{3-[2-(4-chloro-3-fluorophenoxy)acetamido]bicyclo[1.1.1]pentan-1-yl}-3,4-dihydro-2H-1-benzopyran-2-carboxamide]: the EC50 was 10 to 50 nM.

As to `COc1cc2oc(C(=O)NC34CC(NC(=O)COc5ccc(Cl)c(F)c5)(C3)C4)cc(=O)c2cc1OC` [Compound 221, N-{3-[2-(4-chloro-3-fluorophenoxy)acetamido]bicyclo[1.1.1]pentan-1-yl}-6,7-dimethoxy-4-oxo-4H-1-benzopyran-2-carboxamide], the EC50 is above 2000 nM. Under `O=C(COc1ccc(Cl)c(F)c1)NC12CC(NC(=O)C3CC(O)c4ccc(F)cc4O3)(C1)C2` (stereo not shown) [Compound 222, N-{3-[2-(4-chloro-3-fluorophenoxy)acetamido]bicyclo[1.1.1]pentan-1-yl}-7-fluoro-4-hydroxy-3,4-dihydro-2H-1-benzopyran-2-carboxamide] stands below 10 nM; under `O=C(COc1ccc(Cl)c(F)c1)NC12CC(NC(=O)[C@H]3CC(=O)c4cc(Cl)ccc4O3)(C1)C2` [Compound 223, (2R)-6-chloro-N-{3-[2-(4-chloro-3-fluorophenoxy)acetamido]bicyclo[1.1.1]pentan-1-yl}-4-oxo-3,4-dihydro-2H-1-benzopyran-2-carboxamide], below 10 nM; under `O=C(COc1ccc(Cl)c(F)c1)NC12CC(NC(=O)[C@@H]3CC(=O)c4cc(Cl)ccc4O3)(C1)C2` [Compound 224, (2S)-6-chloro-N-{3-[2-(4-chloro-3-fluorophenoxy)acetamido]bicyclo[1.1.1]pentan-1-yl}-4-oxo-3,4-dihydro-2H-1-benzopyran-2-carboxamide], below 10 nM.

Regarding `O=C(COc1ccc(C(F)(F)F)nc1)NC12CC(NC(=O)[C@H]3CC(=O)c4cc(Cl)ccc4O3)(C1)C2` [Compound 225, (2R)-6-chloro-4-oxo-N-[3-(2-{[6-(trifluoromethyl)pyridin-3-yl]oxy}acetamido)bicyclo[1.1.1]pentan-1-yl]-3,4-dihydro-2H-1-benzopyran-2-carboxamide], the EC50 is 10 to 50 nM. Turning to `O=C(COc1ccc(C(F)(F)F)nc1)NC12CC(NC(=O)[C@H]3C[C@@H](O)c4cc(Cl)ccc4O3)(C1)C2` [Compound 226, (2R,4R)-6-chloro-4-hydroxy-N-[3-(2-{[6-(trifluoromethyl)pyridin-3-yl]oxy}acetamido)bicyclo[1.1.1]pentan-1-yl]-3,4-dihydro-2H-1-benzopyran-2-carboxamide], the EC50 is below 10 nM. Next, `COc1ncc(OCC(=O)NC23CC(NC(=O)[C@H]4C[C@@H](O)c5cc(Cl)ccc5O4)(C2)C3)cn1` [Compound 227, (2R,4R)-6-chloro-4-hydroxy-N-(3-{2-[(2-methoxypyrimidin-5-yl)oxy]acetamido}bicyclo[1.1.1]pentan-1-yl)-3,4-dihydro-2H-1-benzopyran-2-carboxamide]: 50 to 250 nM. Under `O=C(COc1cnc(C(F)(F)F)nc1)NC12CC(NC(=O)[C@H]3C[C@@H](O)c4cc(Cl)ccc4O3)(C1)C2` [Compound 228, (2R,4R)-6-chloro-4-hydroxy-N-[3-(2-{[2-(trifluoromethyl)pyrimidin-5-yl]oxy}acetamido)bicyclo[1.1.1]pentan-1-yl]-3,4-dihydro-2H-1-benzopyran-2-carboxamide] stands 10 to 50 nM. Under `O=C(COc1ccc(Cl)c(F)c1)NC12CCC(NC(=O)[C@H]3C[C@@H](O)c4cc(Cl)ccc4O3)(CC1)CC2` [Compound 229, (2R,4R)-6-chloro-N-{4-[2-(4-chloro-3-fluorophenoxy)acetamido]bicyclo[2.2.2]octan-1-yl}-4-hydroxy-3,4-dihydro-2H-1-benzopyran-2-carboxamide] stands below 10 nM. Consider `O=C(COc1ccc(Cl)c(F)c1)NC12CC(NC(=O)c3cc(=O)c4ccc(C(F)(F)F)cc4o3)(C1)C2` [Compound 230, N-{3-[2-(4-chloro-3-fluorophenoxy)acetamido]bicyclo[1.1.1]pentan-1-yl}-4-oxo-7-(trifluoromethyl)-4H-1-benzopyran-2-carboxamide], for which the EC50 was below 10 nM. Under `O=C(COc1ccc(Cl)c(F)c1)NC12CC(NC(=O)c3cc(=O)c4cc(Cl)c(F)cc4o3)(C1)C2` [Compound 231, 6-chloro-N-{3-[2-(4-chloro-3-fluorophenoxy)acetamido]bicyclo[1.1.1]pentan-1-yl}-7-fluoro-4-oxo-4H-1-benzopyran-2-carboxamide] stands below 10 nM; under `O=C(COc1ccc(Cl)c(F)c1)NC12CC(NC(=O)c3cc(=O)c4cc(F)c(Cl)cc4o3)(C1)C2` [Compound 232, 7-chloro-N-{3-[2-(4-chloro-3-fluorophenoxy)acetamido]bicyclo[1.1.1]pentan-1-yl}-6-fluoro-4-oxo-4H-1-benzopyran-2-carboxamide], below 10 nM; under `O=C(COc1ccc(Cl)cn1)NC12CC(NC(=O)[C@H]3C[C@@H](O)c4cc(Cl)ccc4O3)(C1)C2` [Compound 233, (2R,4R)-6-chloro-N-(3-{2-[(5-chloropyridin-2-yl)oxy]acetamido}bicyclo[1.1.1]pentan-1-yl)-4-hydroxy-3,4-dihydro-2H-1-benzopyran-2-carboxamide], 10 to 50 nM. Next, `O=C(COc1ccc(Cl)c(F)c1)NC12CC(NC(=O)c3cc(=O)c4ccc(Cl)cc4o3)(C1)C2` [Compound 235, 7-chloro-N-{3-[2-(4-chloro-3-fluorophenoxy)acetamido]bicyclo[1.1.1]pentan-1-yl}-4-oxo-4H-1-benzopyran-2-carboxamide]: 10 to 50 nM. Under `Cc1cc2oc(C(=O)NC34CC(NC(=O)COc5ccc(Cl)c(F)c5)(C3)C4)cc(=O)c2cc1Cl` [Compound 236, 6-chloro-N-{3-[2-(4-chloro-3-fluorophenoxy)acetamido]bicyclo[1.1.1]pentan-1-yl}-7-methyl-4-oxo-4H-1-benzopyran-2-carboxamide] stands below 10 nM. `CC1(C(=O)NC23CC(NC(=O)COc4ccc(Cl)c(F)c4)(C2)C3)CCc2cc(Cl)ccc2O1` (stereo not shown) [Compound 240, 6-chloro-N-{3-[2-(4-chloro-3-fluorophenoxy)acetamido]bicyclo[1.1.1]pentan-1-yl}-2-methyl-3,4-dihydro-2H-1-benzopyran-2-carboxamide]: the EC50 lay in the range of 10 to 50 nM.

For the compound `Cc1cc2c(cc1F)[C@@H](O)C[C@@H](C(=O)NC13CC(NC(=O)COc4ccc(Cl)c(F)c4)(C1)C3)O2` [Compound 242, (2S,4S)—N-{3-[2-(4-chloro-3-fluorophenoxy)acetamido]bicyclo[1.1.1]pentan-1-yl}-6-fluoro-4-hydroxy-7-methyl-3,4-dihydro-2H-1-benzopyran-2-carboxamide], the EC50 was below 10 nM. For `O=C(COc1ccc(Cl)c(F)c1)NC12CC(NC(=O)C3CC(O)c4ccc(C(F)(F)F)cc4O3)(C1)C2` (stereo not shown) [Compound 243, N-{3-[2-(4-chloro-3-fluorophenoxy)acetamido]bicyclo[1.1.1]pentan-1-yl}-4-hydroxy-7-(trifluoromethyl)-3,4-dihydro-2H-1-benzopyran-2-carboxamide], the EC50 was below 10 nM. Next, `CS(=O)(=O)N[C@H]1C[C@H](C(=O)NC23CC(NC(=O)COc4ccc(Cl)c(F)c4)(C2)C3)Oc2ccc(Cl)cc21` [Compound 244, (2R,4S)-6-chloro-N-{3-[2-(4-chloro-3-fluorophenoxy)acetamido]bicyclo[1.1.1]pentan-1-yl}-4-[(methanesulfonyl)amino]-3,4-dihydro-2H-1-benzopyran-2-carboxamide]: 10 to 50 nM.
